# Reference: PubChem BioAssay AID1259407 (Chemical Carcinogenesis Research Information System (CCRIS), 2018)
# The source made the active and inactive calls. The rule behind the calls is not given here.
# Test system: CCRIS mutagenicity, Ames/micronucleus/aberration tests
# Test: CCRIS mutagenicity studies
# [1] = Test System: AMES SALMONELLA TYPHIMURIUM, Strain/Indicator: TA98, Metabolic Activation: NONE, Method: PREINCUBATION
# [2] = Test System: AMES SALMONELLA TYPHIMURIUM, Strain/Indicator: TA100, Metabolic Activation: NONE, Method: PREINCUBATION
# [3] = Test System: AMES SALMONELLA TYPHIMURIUM, Strain/Indicator: TA1535, Metabolic Activation: NONE, Method: PREINCUBATION
# [4] = Test System: AMES SALMONELLA TYPHIMURIUM, Strain/Indicator: TA1537, Metabolic Activation: NONE, Method: PREINCUBATION
# [5] = Test System: MOUSE LYMPHOMA, Strain/Indicator: L5178Y (TK+/TK-), Metabolic Activation: NONE, Method: SUSPENSION/PLATE
# [6] = Test System: AMES SALMONELLA TYPHIMURIUM, Strain/Indicator: TA98, Metabolic Activation: NONE, Method: STANDARD PLATE
# [7] = Test System: AMES SALMONELLA TYPHIMURIUM, Strain/Indicator: TA100, Metabolic Activation: NONE, Method: STANDARD PLATE
smiles,measurement,setting,value
CC1(C)SSC[C@@H](C(=O)O)NC1=O,mutagenic call,[1],inactive; negative
same,mutagenic call,[2],inactive; negative
same,mutagenic call,[3],inactive; negative
same,mutagenic call,[4],inactive; negative
same,mutagenic call,"Test System: AMES SALMONELLA TYPHIMURIUM, Strain/Indicator: TA1538, Metabolic Activation: NONE, Method: PREINCUBATION",inactive; negative
same,mutagenic call,"Test System: E. COLI, Strain/Indicator: WP2, Metabolic Activation: NONE, Method: PREINCUBATION",inactive; negative
same,mutagenic call,"Test System: E. COLI, Strain/Indicator: WP2 UVRA, Metabolic Activation: NONE, Method: PREINCUBATION",inactive; negative
N#CCc1cn(N=O)c2ccccc12,mutagenic call,"Test System: AMES SALMONELLA TYPHIMURIUM, Strain/Indicator: TA100, Metabolic Activation: NONE",active; positive
same,mutagenic call,"Test System: AMES SALMONELLA TYPHIMURIUM, Strain/Indicator: TA100, Metabolic Activation: S-9",active; positive
CN(Cc1cccc(C(F)(F)F)c1)N=O,mutagenic call,"Test System: AMES SALMONELLA TYPHIMURIUM, Strain/Indicator: TA1535, Metabolic Activation: HAMSTER, LIVER, S-9, AROCLOR 1254, Method: STANDARD PLATE",active; positive
same,mutagenic call,"Test System: AMES SALMONELLA TYPHIMURIUM, Strain/Indicator: TA1535, Metabolic Activation: NONE, Method: STANDARD PLATE",inactive; negative
CCOC(=O)/C=C\C(=O)OCC,mutagenic call,[5],active; positive
C=C.CC(N)c1ccccc1.[Cl-].[Cl-].[Pt+2] (centres undefined),mutagenic call,"Test System: AMES SALMONELLA TYPHIMURIUM, Strain/Indicator: TA92, Metabolic Activation: NONE, Method: STANDARD PLATE",inactive; negative
same,mutagenic call,[6],inactive; negative
same,mutagenic call,[7],inactive; negative
same,mutagenic call,"Test System: AMES SALMONELLA TYPHIMURIUM, Strain/Indicator: TA2410, Metabolic Activation: NONE, Method: STANDARD PLATE",inactive; negative
O=[N+]([O-])c1c2c(cc3ccccc13)[C@@H](O)[C@H](O)C=C2,mutagenic call,[6],active; positive
same,mutagenic call,"Test System: AMES SALMONELLA TYPHIMURIUM, Strain/Indicator: TA98, Metabolic Activation: RAT, LIVER, S-9, Method: STANDARD PLATE",active; positive
same,mutagenic call,[7],inactive; negative
same,mutagenic call,"Test System: AMES SALMONELLA TYPHIMURIUM, Strain/Indicator: TA100, Metabolic Activation: RAT, LIVER, S-9, Method: STANDARD PLATE",inactive; negative
O=Cc1cccc(-c2ccccc2)c1,mutagenic call,[6],inactive; negative
same,mutagenic call,"Test System: AMES SALMONELLA TYPHIMURIUM, Strain/Indicator: TA98, Metabolic Activation: RAT, LIVER, S-9, AROCLOR 1254, Method: STANDARD PLATE",inactive; negative
same,mutagenic call,[7],inactive; negative
same,mutagenic call,"Test System: AMES SALMONELLA TYPHIMURIUM, Strain/Indicator: TA100, Metabolic Activation: RAT, LIVER, S-9, AROCLOR 1254, Method: STANDARD PLATE",inactive; negative
Clc1ccc(C(c2ccc(Cl)cc2)C(Cl)(Cl)Cl)cc1,mutagenic call,"Test System: AMES SALMONELLA TYPHIMURIUM, Strain/Indicator: TA97, Metabolic Activation: HAMSTER, LIVER, S-9, AROCLOR 1254 (10 OR 30%), Method: PREINCUBATION",inactive; negative
same,mutagenic call,"Test System: AMES SALMONELLA TYPHIMURIUM, Strain/Indicator: TA97, Metabolic Activation: NONE, Method: PREINCUBATION",inactive; negative
same,mutagenic call,"Test System: AMES SALMONELLA TYPHIMURIUM, Strain/Indicator: TA97, Metabolic Activation: RAT, LIVER, S-9, AROCLOR 1254 (10 OR 30%), Method: PREINCUBATION",inactive; negative
same,mutagenic call,"Test System: AMES SALMONELLA TYPHIMURIUM, Strain/Indicator: TA98, Metabolic Activation: HAMSTER, LIVER, S-9, AROCLOR 1254 (10 OR 30%), Method: PREINCUBATION",inactive; negative
same,mutagenic call,[1],inactive; negative
same,mutagenic call,"Test System: AMES SALMONELLA TYPHIMURIUM, Strain/Indicator: TA98, Metabolic Activation: RAT, LIVER, S-9, AROCLOR 1254 (10 OR 30%), Method: PREINCUBATION",inactive; negative
same,mutagenic call,"Test System: AMES SALMONELLA TYPHIMURIUM, Strain/Indicator: TA100, Metabolic Activation: HAMSTER, LIVER, S-9, AROCLOR 1254 (10 OR 30%), Method: PREINCUBATION",inactive; negative
same,mutagenic call,[2],inactive; negative
same,mutagenic call,"Test System: AMES SALMONELLA TYPHIMURIUM, Strain/Indicator: TA100, Metabolic Activation: RAT, LIVER, S-9, AROCLOR 1254 (10 OR 30%), Method: PREINCUBATION",inactive; negative
same,mutagenic call,"Test System: AMES SALMONELLA TYPHIMURIUM, Strain/Indicator: TA1535, Metabolic Activation: HAMSTER, LIVER, S-9, AROCLOR 1254 (10 OR 30%), Method: PREINCUBATION",inactive; negative
same,mutagenic call,[3],inactive; negative
same,mutagenic call,"Test System: AMES SALMONELLA TYPHIMURIUM, Strain/Indicator: TA1535, Metabolic Activation: RAT, LIVER, S-9, AROCLOR 1254 (10 OR 30%), Method: PREINCUBATION",inactive; negative
same,mutagenic call,"Test System: AMES SALMONELLA TYPHIMURIUM, Strain/Indicator: TA1537, Metabolic Activation: HAMSTER, LIVER, S-9, AROCLOR 1254 (30%), Method: PREINCUBATION",inactive; negative
same,mutagenic call,[4],inactive; negative
same,mutagenic call,"Test System: AMES SALMONELLA TYPHIMURIUM, Strain/Indicator: TA1537, Metabolic Activation: RAT, LIVER, S-9, AROCLOR 1254 (30%), Method: PREINCUBATION",inactive; negative
same,mutagenic call,"Test System: CHINESE HAMSTER V-79, Strain/Indicator: V-79/8-AZAGUANINE, Metabolic Activation: NONE, Method: STANDARD PLATE",active; positive
CC(N)=S,mutagenic call,"Test System: AMES SALMONELLA TYPHIMURIUM, Strain/Indicator: TA102, Metabolic Activation: RAT LIVER S-9, PHENOBARBITAL AND 5,6-BENZOFLAVONE, Method: STANDARD PLATE",inactive; negative
same,mutagenic call,"Test System: AMES SALMONELLA TYPHIMURIUM, Strain/Indicator: TA2638, Metabolic Activation: RAT LIVER S-9, PHENOBARBITAL AND 5,6-BENZOFLAVONE, Method: STANDARD PLATE",inactive; negative
same,mutagenic call,"Test System: E. COLI, Strain/Indicator: WP2 (PKM101), Metabolic Activation: RAT LIVER S-9, PHENOBARBITAL AND 5,6-BENZOFLAVONE, Method: STANDARD PLATE",inactive; negative
same,mutagenic call,"Test System: E. COLI, Strain/Indicator: WP2 UVRA (PKM101), Metabolic Activation: RAT LIVER S-9, PHENOBARBITAL AND 5,6-BENZOFLAVONE, Method: STANDARD PLATE",inactive; negative
same,mutagenic call,"Test System: E. COLI, Strain/Indicator: WP2 UVRA, Metabolic Activation: HAMSTER, LIVER, S-9, AROCLOR 1254, Method: STANDARD PLATE",inactive; negative
same,mutagenic call,"Test System: E. COLI, Strain/Indicator: WP2 UVRA, Metabolic Activation: HAMSTER, LIVER, S-9, Method: STANDARD PLATE",inactive; negative
same,mutagenic call,"Test System: E. COLI, Strain/Indicator: WP2 UVRA, Metabolic Activation: MOUSE, LIVER, S-9, AROCLOR 1254, Method: STANDARD PLATE",inactive; negative
same,mutagenic call,"Test System: E. COLI, Strain/Indicator: WP2 UVRA, Metabolic Activation: MOUSE, LIVER, S-9, Method: STANDARD PLATE",inactive; negative
same,mutagenic call,"Test System: E. COLI, Strain/Indicator: WP2 UVRA, Metabolic Activation: NONE, Method: STANDARD PLATE",inactive; negative
same,mutagenic call,"Test System: E. COLI, Strain/Indicator: WP2 UVRA, Metabolic Activation: RAT, LIVER, S-9, AROCLOR 1254, Method: STANDARD PLATE",inactive; negative
same,mutagenic call,"Test System: E. COLI, Strain/Indicator: WP2 UVRA, Metabolic Activation: RAT, LIVER, S-9, Method: STANDARD PLATE",inactive; negative
same,mutagenic call,[5],active; positive
same,mutagenic call,"Test System: MOUSE LYMPHOMA, Strain/Indicator: L5178Y (TK+/TK-), Metabolic Activation: RAT, LIVER, S-9, AROCLOR 1254, Method: SUSPENSION/PLATE",active; positive
same,mutagenic call,"Test System: MOUSE LYMPHOMA, Strain/Indicator: L5178Y (TK+/TK-), Metabolic Activation: RAT, LIVER, S-9, Method: SUSPENSION/PLATE",inactive; negative
